According to patent US8940685B2, “Method for preparing active peptides from corn germ proteins” (China National Research Institute of Food and Fermentation …, priority 2011, dated 2015):

How the values were obtained:
[1] = system: spontaneous hypertension rats; experiment: antihypertensive effect on spontaneous hypertension rat, 8 weeks of continuous gavage; format: in vivo; details: for blood pressure: Captopril group 10 mg/kg.bw gavage, n = 8
Method: The blank control group was gavaged with the same volume of distilled water, and the positive control group was gavaged with 10 mg/kg.bw captopril.

ACE = ACE (Homo sapiens, UniProt P12821); details: read-out: in vitro antihypertensive activity IC50; cited from earlier work
SHR = details: oral gavage 50 mg/kg, after two hours; cited from earlier work
[2] = after 8 weeks of continuous gavage, each group, P>0.05

ACE, sequence (P12821 30-1306, species assumed): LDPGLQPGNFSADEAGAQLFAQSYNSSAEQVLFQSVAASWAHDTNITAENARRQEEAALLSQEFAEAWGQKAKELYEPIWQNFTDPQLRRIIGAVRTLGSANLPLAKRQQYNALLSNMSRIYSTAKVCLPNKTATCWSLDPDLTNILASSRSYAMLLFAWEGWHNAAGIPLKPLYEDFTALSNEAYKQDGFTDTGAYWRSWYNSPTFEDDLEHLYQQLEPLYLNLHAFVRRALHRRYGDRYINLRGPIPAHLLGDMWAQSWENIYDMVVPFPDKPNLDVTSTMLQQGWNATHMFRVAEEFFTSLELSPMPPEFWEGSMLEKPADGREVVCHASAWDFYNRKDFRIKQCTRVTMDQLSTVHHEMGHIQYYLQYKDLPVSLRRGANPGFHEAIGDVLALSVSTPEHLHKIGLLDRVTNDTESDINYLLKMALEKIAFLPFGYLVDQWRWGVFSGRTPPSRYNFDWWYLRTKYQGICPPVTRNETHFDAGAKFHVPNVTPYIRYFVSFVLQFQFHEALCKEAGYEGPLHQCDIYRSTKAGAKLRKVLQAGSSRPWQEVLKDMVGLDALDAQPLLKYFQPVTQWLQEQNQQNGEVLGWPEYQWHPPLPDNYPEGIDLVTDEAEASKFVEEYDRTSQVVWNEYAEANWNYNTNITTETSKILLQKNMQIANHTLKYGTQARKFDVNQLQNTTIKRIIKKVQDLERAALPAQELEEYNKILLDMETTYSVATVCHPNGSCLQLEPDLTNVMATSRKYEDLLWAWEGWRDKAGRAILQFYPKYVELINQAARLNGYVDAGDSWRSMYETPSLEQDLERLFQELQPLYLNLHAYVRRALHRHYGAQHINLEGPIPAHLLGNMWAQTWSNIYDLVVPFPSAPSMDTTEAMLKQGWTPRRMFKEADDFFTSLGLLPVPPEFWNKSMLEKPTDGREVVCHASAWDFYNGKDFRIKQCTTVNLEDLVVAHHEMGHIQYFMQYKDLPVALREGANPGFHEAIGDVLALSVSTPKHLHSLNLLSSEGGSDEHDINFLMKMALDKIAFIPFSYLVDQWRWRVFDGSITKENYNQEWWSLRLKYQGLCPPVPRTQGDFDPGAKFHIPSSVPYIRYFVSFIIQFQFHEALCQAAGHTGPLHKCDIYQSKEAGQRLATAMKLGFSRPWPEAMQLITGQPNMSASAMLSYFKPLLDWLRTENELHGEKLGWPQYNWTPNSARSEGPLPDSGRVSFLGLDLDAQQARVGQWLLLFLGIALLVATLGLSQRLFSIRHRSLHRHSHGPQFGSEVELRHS

| Compound | blood pressure ([1]; 0w) [mmHg] | blood pressure ([1]; 1w) [mmHg] | blood pressure ([1]; 2w) [mmHg] | blood pressure ([1]; 3w) [mmHg] | blood pressure ([1]; 4w) [mmHg] | blood pressure ([1]; 5w) [mmHg] | blood pressure ([1]; 6w) [mmHg] | blood pressure ([1]; 7w) [mmHg] | blood pressure ([1]; 8w) [mmHg] | body weight [1, 2] | heart rate [1, 2] | heart/body weight ratio [1, 2] | Serum aldosterone concentration vs control group ([1]; captopril group 10 mg/kg.bw, n=8, P<0.01) | IC50 (ACE) [µM] | drop of blood pressure (SHR) [mmHg] |
| --- | --- | --- | --- | --- | --- | --- | --- | --- | --- | --- | --- | --- | --- | --- | --- |
| C[C@H](CS)C(=O)N1CCC[C@H]1C(=O)O [Captopril, captopril] | 193 ± 6 | 184 ± 16 | 177 ± 9 | 174 ± 12 | 170 ± 14 | 168 ± 12 | 164 ± 17 | 162 ± 15 | 161 ± 16 | no significant change | no significant change | no significant change | significantly lower | – | – |
| alanine-Tyrosine [AY] | – | – | – | – | – | – | – | – | – | – | – | – | – | 14.2 | 9.5 |
